≈ marks a conversion by molar mass, not a printed value.
Tests used:
Mus musculus [1] = species: Mus musculus; assay: Antidepressant activity in Swiss albino mouse assessed as change in immobility by forced swim test; type: functional
Mus musculus [2] = species: Mus musculus; assay: Antidepressant activity in Swiss albino mouse assessed as decrease in immobility time by forced swim test (reference value: 203.3 sec); type: functional
Mus musculus [3] = species: Mus musculus; assay: Antidepressant activity in Swiss albino mouse assessed as decrease in immobility time by tail suspension test (reference value: 185.8 sec); type: functional
Mus musculus [4] = species: Mus musculus; assay: Antidepressant activity in Swiss albino mouse assessed as change in immobility by tail suspension test; type: functional
Escherichia coli [5] = assay: Antibacterial activity against Escherichia coli assessed as diameter of inhibition zone at 100 ppm; type: functional; details: read-out: DIZ
Bacillus subtilis [6] = assay: Antibacterial activity against Bacillus subtilis assessed as diameter of inhibition zone at 100 ppm; type: functional; details: read-out: DIZ
Pseudomonas aeruginosa [7] = assay: Antibacterial activity against Pseudomonas aeruginosa assessed as diameter of inhibition zone at 100 ppm; type: functional; details: read-out: DIZ
Aspergillus niger = assay: Antifungal activity against Aspergillus niger assessed as diameter of inhibition zone at 100 ppm; type: functional; details: read-out: DIZ
Rattus norvegicus [8] = assay: Antiinflammatory activity against rat assessed as inhibition of carrageenan-induced paw edema relative to control; type: functional; set-up: concentration or dose not given beside the values
[9] = biological target: T1, Prostaglandin G/H synthase 1 (Ovis aries, UniProt P05979); assay: Inhibition of ovine COX-1
T1 sequence (P05979 whole entry): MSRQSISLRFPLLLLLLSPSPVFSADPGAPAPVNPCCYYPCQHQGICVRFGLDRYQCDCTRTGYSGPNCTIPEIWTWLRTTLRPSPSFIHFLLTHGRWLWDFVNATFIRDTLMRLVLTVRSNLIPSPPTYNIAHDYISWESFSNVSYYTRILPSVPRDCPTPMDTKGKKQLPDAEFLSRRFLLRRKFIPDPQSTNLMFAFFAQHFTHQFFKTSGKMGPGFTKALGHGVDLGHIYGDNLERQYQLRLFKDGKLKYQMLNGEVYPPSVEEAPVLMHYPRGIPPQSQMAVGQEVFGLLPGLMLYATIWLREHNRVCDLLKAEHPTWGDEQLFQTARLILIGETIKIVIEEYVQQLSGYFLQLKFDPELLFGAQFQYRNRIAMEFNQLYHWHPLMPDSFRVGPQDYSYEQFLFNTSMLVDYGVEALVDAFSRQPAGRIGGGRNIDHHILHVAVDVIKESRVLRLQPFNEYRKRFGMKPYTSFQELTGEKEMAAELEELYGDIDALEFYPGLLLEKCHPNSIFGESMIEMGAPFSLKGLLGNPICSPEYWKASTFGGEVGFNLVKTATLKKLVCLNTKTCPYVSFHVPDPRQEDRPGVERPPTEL

[10] = biological target: T2, Prostaglandin G/H synthase 2 (Ovis aries, UniProt P79208); assay: Inhibition of ovine COX-2
T2 sequence (P79208 whole entry): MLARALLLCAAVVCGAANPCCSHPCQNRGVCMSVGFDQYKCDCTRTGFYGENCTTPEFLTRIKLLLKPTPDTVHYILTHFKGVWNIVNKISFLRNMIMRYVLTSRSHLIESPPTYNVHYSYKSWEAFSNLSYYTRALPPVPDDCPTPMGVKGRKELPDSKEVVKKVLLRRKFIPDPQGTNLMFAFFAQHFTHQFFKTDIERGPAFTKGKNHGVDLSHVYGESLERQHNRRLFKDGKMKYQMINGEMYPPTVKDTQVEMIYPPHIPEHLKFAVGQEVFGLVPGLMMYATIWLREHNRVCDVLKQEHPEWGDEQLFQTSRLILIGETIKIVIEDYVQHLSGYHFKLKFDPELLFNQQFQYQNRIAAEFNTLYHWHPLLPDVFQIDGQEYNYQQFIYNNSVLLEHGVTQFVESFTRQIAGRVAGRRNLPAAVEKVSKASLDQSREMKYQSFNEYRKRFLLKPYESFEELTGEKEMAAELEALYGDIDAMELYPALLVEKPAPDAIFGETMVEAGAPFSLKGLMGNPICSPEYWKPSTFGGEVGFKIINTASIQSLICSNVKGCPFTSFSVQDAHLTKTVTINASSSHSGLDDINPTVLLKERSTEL

Ovis aries = species: Ovis aries; assay: Selectivity index, ratio of IC50 for ovine COX-1 to IC50 for ovine COX-2
Rattus norvegicus [11] = assay: Antiinflammatory activity against rat assessed as inhibition of carrageenan-induced paw edema; type: functional
HepG2 = assay: Cytotoxicity against human HepG2 cells; type: functional, cell-based
PC-3 = assay: Cytotoxicity against human PC-3 cells; type: functional, cell-based
MCF7 = assay: Cytotoxicity against human MCF7 cells; type: functional, cell-based
Ehrlich [12] = assay: Cytotoxicity against mouse Ehrlich ascites cells assessed as dead cells at 100 ug/ml; type: functional; details: dose 100 µg/ml
Ehrlich [13] = assay: Cytotoxicity against mouse Ehrlich ascites cells assessed as dead cells at 500 ug/ml; type: functional; details: dose 500 µg/ml
Ehrlich [14] = assay: Cytotoxicity against mouse Ehrlich ascites cells assessed as dead cells at 25 ug/ml; type: functional; details: dose 25 µg/ml
Bacillus subtilis [15] = assay: Antibacterial activity against Bacillus subtilis; type: functional
Streptococcus pyogenes = assay: Antibacterial activity against Streptococcus pyogenes; type: functional
Pseudomonas aeruginosa [16] = assay: Antibacterial activity against Pseudomonas aeruginosa; type: functional
Escherichia coli [17] = assay: Antibacterial activity against Escherichia coli; type: functional
Geotrichum candidum = assay: Antifungal activity against Geotrichum candidum; type: functional
Mus musculus [18] = species: Mus musculus; assay: Anticonvulsant activity in mouse by MES test; type: functional
[19] = biological target: T3, Amine oxidase [flavin-containing] A (Homo sapiens, UniProt P21397); assay: Inhibition of human MAO-A
T3 sequence (P21397 whole entry): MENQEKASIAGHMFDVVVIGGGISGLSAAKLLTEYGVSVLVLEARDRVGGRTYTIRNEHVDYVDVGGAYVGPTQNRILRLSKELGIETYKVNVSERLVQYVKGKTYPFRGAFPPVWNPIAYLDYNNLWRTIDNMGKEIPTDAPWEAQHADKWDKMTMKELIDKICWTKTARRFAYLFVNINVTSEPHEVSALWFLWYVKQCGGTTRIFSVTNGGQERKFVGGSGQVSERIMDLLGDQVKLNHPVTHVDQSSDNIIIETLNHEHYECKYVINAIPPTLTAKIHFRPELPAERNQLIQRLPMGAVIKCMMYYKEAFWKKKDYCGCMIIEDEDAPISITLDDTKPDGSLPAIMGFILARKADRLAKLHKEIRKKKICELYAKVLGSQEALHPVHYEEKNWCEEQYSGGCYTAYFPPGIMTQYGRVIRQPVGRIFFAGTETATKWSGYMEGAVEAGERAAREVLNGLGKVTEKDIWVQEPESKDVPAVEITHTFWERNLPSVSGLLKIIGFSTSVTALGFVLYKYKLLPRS

[20] = biological target: T4, Amine oxidase [flavin-containing] B (Homo sapiens, UniProt P27338); assay: Inhibition of human MAO-B
T4 sequence (P27338 whole entry): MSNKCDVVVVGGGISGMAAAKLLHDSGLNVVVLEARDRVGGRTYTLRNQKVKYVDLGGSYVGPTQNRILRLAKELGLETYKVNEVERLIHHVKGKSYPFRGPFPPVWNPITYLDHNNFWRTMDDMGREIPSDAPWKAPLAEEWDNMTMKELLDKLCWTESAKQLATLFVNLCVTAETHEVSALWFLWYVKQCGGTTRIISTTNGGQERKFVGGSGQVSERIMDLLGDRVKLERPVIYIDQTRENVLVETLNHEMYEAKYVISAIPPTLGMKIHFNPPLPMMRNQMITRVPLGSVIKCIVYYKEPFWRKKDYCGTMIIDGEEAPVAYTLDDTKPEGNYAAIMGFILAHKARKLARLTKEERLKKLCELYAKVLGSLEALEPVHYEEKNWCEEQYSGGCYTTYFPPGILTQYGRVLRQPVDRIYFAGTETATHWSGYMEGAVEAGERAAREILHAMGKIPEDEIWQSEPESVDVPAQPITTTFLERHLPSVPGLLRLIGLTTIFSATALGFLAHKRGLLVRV

Homo sapiens = species: Homo sapiens; assay: Selectivity index, ratio of Ki for human MAO-B to Ki for human MAO-A
[21] = biological target: Amine oxidase [flavin-containing] A (Rattus norvegicus, UniProt P21396); assay: Inhibition of rat brain synaptosome MAO-A; type: subcellular
[22] = biological target: Amine oxidase [flavin-containing] B (Rattus norvegicus, UniProt P19643); assay: Inhibition of rat brain synaptosome MAO-B; type: subcellular
Amine oxidase [flavin-containing] B (Rattus norvegicus, UniProt P19643), sequence (P19643 whole entry): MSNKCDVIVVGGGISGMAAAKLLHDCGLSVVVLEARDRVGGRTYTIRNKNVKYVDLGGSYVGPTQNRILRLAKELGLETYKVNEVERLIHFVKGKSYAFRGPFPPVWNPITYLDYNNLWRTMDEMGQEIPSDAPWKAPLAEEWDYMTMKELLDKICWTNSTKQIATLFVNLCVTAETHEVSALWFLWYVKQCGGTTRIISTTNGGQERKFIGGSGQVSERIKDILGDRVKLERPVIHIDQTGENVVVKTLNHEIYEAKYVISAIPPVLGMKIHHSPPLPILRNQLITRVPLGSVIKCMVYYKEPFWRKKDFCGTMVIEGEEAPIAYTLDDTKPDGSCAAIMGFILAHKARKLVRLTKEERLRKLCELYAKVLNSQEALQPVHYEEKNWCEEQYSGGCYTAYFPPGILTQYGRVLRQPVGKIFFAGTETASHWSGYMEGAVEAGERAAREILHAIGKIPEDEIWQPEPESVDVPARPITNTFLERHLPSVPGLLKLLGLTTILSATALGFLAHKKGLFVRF

Amine oxidase [flavin-containing] A (Rattus norvegicus, UniProt P21396), sequence (P21396 whole entry): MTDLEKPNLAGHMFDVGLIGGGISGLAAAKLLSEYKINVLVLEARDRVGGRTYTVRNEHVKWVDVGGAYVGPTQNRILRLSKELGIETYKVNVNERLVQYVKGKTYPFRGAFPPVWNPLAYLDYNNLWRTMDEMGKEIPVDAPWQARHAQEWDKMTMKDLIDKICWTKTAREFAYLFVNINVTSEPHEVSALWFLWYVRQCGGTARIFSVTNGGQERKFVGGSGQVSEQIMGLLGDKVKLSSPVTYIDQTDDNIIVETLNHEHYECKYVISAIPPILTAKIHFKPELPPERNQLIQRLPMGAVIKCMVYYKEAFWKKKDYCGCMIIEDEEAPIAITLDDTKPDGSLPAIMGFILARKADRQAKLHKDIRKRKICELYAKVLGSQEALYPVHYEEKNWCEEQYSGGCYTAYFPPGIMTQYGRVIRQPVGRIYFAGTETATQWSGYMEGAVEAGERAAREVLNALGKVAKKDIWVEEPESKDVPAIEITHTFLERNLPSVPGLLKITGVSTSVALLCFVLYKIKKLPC

## CC1=NN(C(=O)c2ccc3ccccc3c2)C(=O)C1/N=N/c1ccc(Cl)cc1Cl (configuration not stated)
Mus musculus [1]
  Activity: -51.9%
Mus musculus [2]
  Time: 97.7 s
Mus musculus [3]
  Time: 114.3 s
Mus musculus [4]
  Activity: -38.4%

## Nc1cc(=O)n(-c2ccc([N+](=O)[O-])cc2[N+](=O)[O-])[nH]1
Escherichia coli [5]
  zone of inhibition at 100 µg/mL: 15.3 mm
Bacillus subtilis [6]
  zone of inhibition at 100 µg/mL: 18.1 mm
Pseudomonas aeruginosa [7]
  zone of inhibition at 100 µg/mL: 17.4 mm
Aspergillus niger
  zone of inhibition at 100 µg/mL: 15.2 mm

## NS(=O)(=O)c1ccc(N2N=C/C(=N/Nc3ccc(C(=O)O)cc3)C2=O)cc1
Rattus norvegicus [8]
  Activity: 72.72%
[9]
  IC50: 3810 nM
[10]
  IC50: 720 nM
Ovis aries
  Ratio IC50: 5.29
Rattus norvegicus [11]
  ED50: 44 µmol/kg

## CC/C(=N/NC(=O)c1ccco1)c1c(C)nn(-c2ccccc2)c1O
HepG2
  IC50: 5.69 µg/mL (≈ 16.8 µM)
PC-3
  IC50: 6.8 µg/mL (≈ 20.1 µM)

## O=c1[nH]cc(F)c(=O)[nH]1 [FLUOROURACIL]
MCF7
  IC50: 5.5 µg/mL (≈ 42.3 µM)
Ehrlich [12]
  Activity: 97.3%
Ehrlich [13]
  Activity: 68%
Ehrlich [14]
  Activity: 38.6%
HepG2
  IC50: 7.9 µg/mL (≈ 60.7 µM)
PC-3
  IC50: 8.3 µg/mL (≈ 63.8 µM)

## CC(=O)N1N=C(C)/C(=N/Nc2cc(Cl)cc(Cl)c2)C1=O
Bacillus subtilis [15]
  MIC: ≤ 12.5 µg/mL
Streptococcus pyogenes
  MIC: ≤ 12.5 µg/mL
Pseudomonas aeruginosa [16]
  MIC: ≤ 12.5 µg/mL
Escherichia coli [17]
  MIC: > 200 µg/mL
Geotrichum candidum
  MIC: > 200 µg/mL

## CC1=NN(c2ccccc2)C(=O)/C1=C\c1cn(-c2ccccc2)nc1-c1ccc(Cl)c(Cl)c1
Mus musculus [18]
  Activity: 79.76%

## CN(C)CCCN1c2ccccc2CCc2ccccc21 [IMIPRAMINE]
Mus musculus [1]
  Activity: -53.8%
Mus musculus [2]
  Time: 94 s
Mus musculus [3]
  Time: 109 s
Mus musculus [4]
  Activity: -41.3%

## Cc1c(C(=O)CC(C#N)C#N)c(=O)n(-c2ccccc2)n1C
[19]
  Ki: 0.014 nM
[20]
  Ki: 121 nM
Homo sapiens
  Ratio Ki: 8670
[21]
  IC50: 2340 nM
[22]
  IC50: 132 nM

## CC1=NN(C(=O)c2ccc3ccccc3c2)C(=O)C1/N=N/c1ccc(C)cc1C (configuration not stated)
Mus musculus [1]
  Activity: -36.3%
Mus musculus [2]
  Time: 129.5 s
Mus musculus [3]
  Time: 111 s
Mus musculus [4]
  Activity: -40.2%

## NS(=O)(=O)c1ccc(N2N=C/C(=N/Nc3ccccc3C(=O)O)C2=O)cc1
[9]
  IC50: 4080 nM
[10]
  IC50: 770 nM
Ovis aries
  Ratio IC50: 5.29

## Cc1ccc(/N=N/c2c(N)n[nH]c2N)cc1
Escherichia coli [5]
  zone of inhibition at 100 µg/mL: 23.1 mm
Bacillus subtilis [6]
  zone of inhibition at 100 µg/mL: 25.3 mm
Pseudomonas aeruginosa [7]
  zone of inhibition at 100 µg/mL: 19.3 mm
Aspergillus niger
  zone of inhibition at 100 µg/mL: 25.5 mm
